Molecular target: T1, HCV NS3 protease domain (Hepatitis C virus genotype 1b, UniProt Q9WMX2)
T1 construct: The first 181 amino acids of NS3 (residues 1027-1207 of the viral polyprotein); hexa-histidine (C); made in house; host or cells: E. coli BL21/DE3 pLysS
Experiment: biochemical
Conditions: Enzyme Assay 1 (HCV NS3 Protease Domain Peptide Cleavage Assay) activity, apparent Ki class

T1 sequence (Q9WMX2 1027-1207, other chains not shown): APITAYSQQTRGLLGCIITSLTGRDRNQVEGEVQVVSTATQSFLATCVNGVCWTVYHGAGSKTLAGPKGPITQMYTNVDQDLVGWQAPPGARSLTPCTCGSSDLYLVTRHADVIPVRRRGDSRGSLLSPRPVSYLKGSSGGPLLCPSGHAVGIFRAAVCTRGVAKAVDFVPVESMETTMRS

SMILES | Ki [nM]
CCCC(NC(=O)[C@@H]1C[C@]2(CC(c3ccc(OC)c(OC)c3)=NO2)CN1C(=O)[C@@H](NC(=O)O[C@H]1CCOC1)C(C)(C)C)C(=O)C(=O)NC1CC1 (stereo partly drawn) [Compound 196] | 100 to 500
CCC[C@H](NC(=O)[C@@H]1C[C@]2(CC(c3cccc(Cl)c3)=NO2)CN1C(=O)[C@@H](NC(=O)Oc1ccc2c(c1)OCO2)C(C)(C)C)C(=O)C(=O)NC1CC1 [Compound 197] | 100 to 500
CCC[C@H](NC(=O)[C@@H]1C[C@]2(CC(c3c4ccccc4cc4ccccc34)=NO2)CN1C(=O)[C@@H](NC(=O)OCc1ccccc1)C(C)(C)C)C(=O)C(=O)NC1CC1 [Compound 199] | > 500
CCC[C@H](NC(=O)[C@@H]1C[C@]2(CC(c3ccccc3)=NO2)CN1C(=O)[C@@H](NC(=O)O[C@H]1CCOC1)C(C)(C)C)C(=O)C(=O)NC1CC1 [Compound 202] | > 500
CCC[C@H](NC(=O)[C@@H]1C[C@]2(CC(c3cccc(Cl)c3)=NO2)CN1C(=O)[C@@H](NC(=O)OCc1cc(F)cc(F)c1)C(C)(C)C)C(=O)C(=O)NC1CC1 [Compound 203] | 100 to 500
CCC[C@H](NC(=O)[C@@H]1C[C@]2(CC(c3cccc(Cl)c3)=NO2)CN1C(=O)CNC(=O)NCc1ccccc1)C(=O)C(=O)NC1CC1 [Compound 205] | > 500
CCC[C@H](NC(=O)[C@@H]1C[C@]2(CC(c3cccc(Cl)c3)=NO2)CN1C(=O)CNC(=O)OCC)C(=O)C(=O)NC1CC1 [Compound 207] | > 500
CCC[C@H](NC(=O)[C@@H]1C[C@]2(CC(c3cccc(Cl)c3)=NO2)CN1C(=O)[C@@H](NC(=O)OCc1cccc(F)c1)C(C)(C)C)C(=O)C(=O)NC1CC1 [Compound 209] | 100 to 500
CCC[C@H](NC(=O)[C@@H]1C[C@]2(CC(c3cc(Cl)c(OC)cc3OC)=NO2)CN1C(=O)OCc1ccccc1Cl)C(=O)C(=O)NC1CC1 [Compound 210] | > 500
CCC[C@H](NC(=O)[C@@H]1C[C@]2(CC(c3cccc(Cl)c3)=NO2)CN1C(=O)[C@@H](Nc1cccc(OC)c1)C(C)(C)C)C(=O)C(=O)NC1CC1 [Compound 214] | > 500
CCC[C@H](NC(=O)[C@@H]1C[C@]2(CC(c3cc(F)c(F)c(F)c3)=NO2)CN1C(=O)[C@@H](NC(=O)O[C@H]1CCOC1)C(C)(C)C)C(=O)C(=O)NC1CC1 [Compound 215] | 100 to 500
CCC[C@H](NC(=O)[C@@H]1C[C@]2(CC(c3cccc(Cl)c3)=NO2)CN1C(=O)[C@@H](NC(=O)C1CC(=O)N(Cc2cccs2)C1)C(C)(C)C)C(=O)C(=O)NC1CC1 (stereo partly drawn) [Compound 216] | > 500
CC(C)(C)[C@H](NC(=O)CC1CCCCC1)C(=O)N1C[C@@]2(CC(c3cccc(Cl)c3)=NO2)C[C@H]1C(=O)NC(CC1CCC1)C(=O)C(N)=O (stereo partly drawn) [Compound 217] | < 100
CCC[C@H](NC(=O)[C@@H]1C[C@]2(CC(c3cc(C)c(OC)c(C)c3)=NO2)CN1C(=O)[C@@H](NC(=O)O[C@H]1CCOC1)C(C)(C)C)C(=O)C(=O)NC1CC1 [Compound 224] | 100 to 500
CCC[C@H](NC(=O)[C@@H]1C[C@]2(CC(c3cccc(Cl)c3)=NO2)CN1C(=O)[C@@H](NC(=O)CCC1CCCCC1)C(C)(C)C)C(=O)C(=O)NC1CC1 [Compound 226] | 100 to 500
CCC[C@H](NC(=O)[C@@H]1C[C@]2(CC(c3ccccc3)=NO2)CN1C(=O)[C@@H](NC(C)=O)C(C)(C)C)C(=O)C(=O)NC1CC1 [Compound 228] | > 500
CCC[C@H](NC(=O)[C@@H]1C[C@]2(CC(CCC(=O)OC)=NO2)CN1C(=O)[C@@H](NC(=O)O[C@H]1CCOC1)C(C)(C)C)C(=O)C(=O)NC1CC1 [Compound 229] | > 500
CCC[C@H](NC(=O)[C@@H]1C[C@]2(CC(c3c(C)oc4ccccc34)=NO2)CN1C(=O)[C@@H](NC(=O)CC1CCCCC1)C(C)(C)C)C(=O)C(=O)NC1CC1 [Compound 230] | 100 to 500
CNC(=O)C(=O)C(CC1CCC1)NC(=O)[C@@H]1C[C@]2(CC(c3cccc(Cl)c3)=NO2)CN1C(=O)[C@@H](NC(=O)CC1CCCCC1)C(C)(C)C (stereo partly drawn) [Compound 231] | 100 to 500
CCC[C@H](NC(=O)[C@@H]1C[C@]2(CC(c3cc(F)cc(Cl)c3)=NO2)CN1C(=O)[C@@H](NC(=O)CC1CCOCC1)C(C)(C)C)C(=O)C(=O)NC1CC1 [Compound 234] | 100 to 500
CCCC1=NO[C@]2(C1)C[C@@H](C(=O)N[C@@H](CCC)C(=O)C(=O)NC1CC1)N(C(=O)[C@@H](NC(=O)OCc1ccccc1)C(C)(C)C)C2 [Compound 235] | > 500
CCC[C@H](NC(=O)[C@@H]1C[C@]2(CC(c3cccc(Cl)c3)=NO2)CN1C(=O)[C@@H](NC(=O)CCn1ccnc1C)C(C)(C)C)C(=O)C(=O)NC1CC1 [Compound 237] | 100 to 500
CCC[C@H](NC(=O)[C@@H]1C[C@]2(CC(c3cccc(Br)c3)=NO2)CN1C(=O)[C@@H](NC(=O)OCc1ccccc1)C(C)(C)C)C(=O)C(=O)NC1CC1 [Compound 239] | 100 to 500
CCC[C@H](NC(=O)[C@@H]1C[C@]2(CC(c3ccc(C(F)(F)F)cc3)=NO2)CN1C(=O)O[C@H]1CCOC1)C(=O)C(=O)NC1CC1 [Compound 240] | > 500

SMILES | Ki [nM]
CCCC1=NO[C@]2(C1)C[C@@H](C(=O)N[C@@H](CCC)C(=O)C(=O)NC1CC1)N(C(=O)[C@@H](NC(=O)OC1CCOC1)C(C)(C)C)C2 (stereo partly drawn) [Compound 243] | > 500
CCC[C@H](NC(=O)[C@@H]1C[C@]2(CC(c3cccc(OC(F)(F)F)c3)=NO2)CN1C(=O)[C@@H](NC(=O)O[C@H]1CCOC1)C(C)(C)C)C(=O)C(=O)NC1CC1 [Compound 244] | 100 to 500
CCC[C@H](NC(=O)[C@@H]1C[C@]2(CC(c3cccc(Cl)c3)=NO2)CN1C(=O)[C@@H](NC(=O)CC1=CCCCC1)C(C)(C)C)C(=O)C(=O)NC1CC1 [Compound 245] | 100 to 500
CC(C)(C)NC(=O)N[C@H](C(=O)N1C[C@@]2(CC(c3cccc(Cl)c3)=NO2)C[C@H]1C(=O)NC(CC1CCC1)C(=O)C(N)=O)C(C)(C)C (stereo partly drawn) [Compound 247] | < 100
CCC[C@H](NC(=O)[C@@H]1C[C@]2(CC(c3ccccc3)=NO2)CN1C(=O)[C@@H](NC(=O)NCC1CCCCC1)C(C)(C)C)C(=O)C(=O)NC1CC1 [Compound 249] | 100 to 500
CCC[C@H](NC(=O)[C@@H]1C[C@]2(CC(Cc3ccccc3)=NO2)CN1C(=O)[C@@H](NC(=O)O[C@H]1CCOC1)C(C)(C)C)C(=O)C(=O)NC1CC1 [Compound 251] | > 500
CCC[C@H](NC(=O)[C@@H]1C[C@]2(CC(c3cccc(Cl)c3)=NO2)CN1C(=O)[C@@H](NC(=O)OC(C)Cc1cccs1)C(C)(C)C)C(=O)C(=O)NC1CC1 (stereo partly drawn) [Compound 254] | 100 to 500
CCC[C@H](NC(=O)[C@@H]1C[C@]2(CC(c3ccc(CC)o3)=NO2)CN1C(=O)[C@@H](NC(=O)CC1CCCCC1)C(C)(C)C)C(=O)C(=O)NC1CC1 [Compound 256] | 100 to 500
CCC[C@H](NC(=O)[C@@H]1C[C@]2(CC(c3cccc(-c4ccccc4)c3)=NO2)CN1C(=O)[C@@H](NC(=O)O[C@H]1CCOC1)C(C)(C)C)C(=O)C(=O)NC1CC1 [Compound 257] | 100 to 500
CCC[C@H](NC(=O)[C@@H]1C[C@@]2(CC(c3cc(F)cc(C(F)(F)F)c3)=NO2)CN1C(=O)[C@@H](NC(=O)O[C@H]1CCOC1)C(C)(C)C)C(=O)C(=O)NC1CC1 [Compound 258] | > 500
CCC[C@H](NC(=O)[C@@H]1C[C@]2(CC(c3cccc(Cl)c3)=NO2)CN1C(=O)[C@@H](NC(=O)NCc1cc(OC)c(OC)c(OC)c1)C(C)(C)C)C(=O)C(=O)NC1CC1 [Compound 259] | 100 to 500
CCC[C@H](NC(=O)[C@@H]1C[C@]2(CC(c3cccc(Cl)c3)=NO2)CN1C(=O)[C@@H](NC(=O)OCCOC)C(C)(C)C)C(=O)C(=O)NC1CC1 [Compound 260] | 100 to 500
CCC[C@H](NC(=O)[C@@H]1C[C@]2(CC(c3cccc(Cl)c3)=NO2)CN1C(=O)[C@@H](NC(=O)NC1CCN(C(=O)OCc2ccccc2)CC1)C(C)(C)C)C(=O)C(=O)NC1CC1 [Compound 261] | 100 to 500
CCC[C@H](NC(=O)[C@@H]1C[C@]2(CC(c3cccc(Cl)c3)=NO2)CN1C(=O)Oc1ccc([N+](=O)[O-])cc1)C(=O)C(=O)NC1CC1 [Compound 262] | > 500
CCC[C@H](NC(=O)[C@@H]1C[C@]2(CC(c3ccc(F)c(Cl)c3)=NO2)CN1C(=O)[C@@H](NC(=O)CC1CCOCC1)C(C)(C)C)C(=O)C(=O)NC1CC1 [Compound 270] | 100 to 500
CCC[C@H](NC(=O)[C@@H]1C[C@]2(CC(c3cccc(Cl)c3)=NO2)CN1C(=O)[C@@H](NC(=O)CC1CCCCC1)C(C)(C)C)C(=O)C(N)=O [Compound 273] | 100 to 500
CCC[C@H](NC(=O)[C@@H]1C[C@]2(CC(c3cccc(Cl)c3)=NO2)CN1C(=O)CN1C[C@H]2CCCC[C@H]2C[C@H]1C(=O)NC(C)(C)C)C(=O)C(=O)NC1CC1 [Compound 276] | > 500
CCC[C@H](NC(=O)[C@@H]1C[C@]2(CC(c3ccccc3Oc3ccc(OC)cc3)=NO2)CN1C(=O)[C@@H](NC(=O)OCc1ccccc1)C(C)(C)C)C(=O)C(=O)NC1CC1 [Compound 278] | > 500
CCC[C@H](NC(=O)[C@@H]1C[C@]2(CC(c3ccc(OC)c(Cl)c3)=NO2)CN1C(=O)[C@@H](NC(=O)CC1CCOCC1)C(C)(C)C)C(=O)C(=O)NC1CC1 [Compound 279] | 100 to 500
CCC[C@H](NC(=O)[C@@H]1C[C@]2(CC(c3ccccc3)=NO2)CN1C(=O)[C@@H](NC(=O)[C@@H](NC(=O)c1cnccn1)C1CCCCC1)C(C)(C)C)C(=O)C(=O)NC1CC1 [Compound 281] | < 100
CCC[C@H](NC(=O)[C@@H]1C[C@]2(CC(c3ccccc3)=NO2)CN1C(=O)[C@@H](NC(=O)Cc1cccnc1)C(C)(C)C)C(=O)C(=O)NC1CC1 [Compound 283] | > 500
CCC[C@H](NC(=O)[C@@H]1C[C@]2(CC(c3cc(Cl)cc(Cl)c3)=NO2)CN1C(=O)[C@@H](NC(=O)CC1CCOCC1)C(C)(C)C)C(=O)C(=O)NC1CC1 [Compound 285] | 100 to 500
CCC[C@H](NC(=O)[C@@H]1C[C@]2(CC(c3cccc(Cl)c3)=NO2)CN1C(=O)[C@@H](NC(=O)Cc1cccc(OC)c1)C(C)(C)C)C(=O)C(=O)NC1CC1 [Compound 287] | 100 to 500
CCC[C@H](NC(=O)[C@@H]1C[C@]2(CC(c3ccccc3)=NO2)CN1C(=O)[C@@H](NC(=O)Nc1cccc2ccccc12)C(C)(C)C)C(=O)C(=O)NC1CC1 [Compound 288] | 100 to 500

Reference: US7964624B1, “Inhibitors of serine proteases” (priority 2005, dated 2011)
